From PubChem BioAssay (NCI)
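Test compounds were applied to cells in 96-well plates for 48 hours at 5 doses. TGI: total growth inhibition.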

Assays:
Experiment in all cases: inhibition of tumour cell growth, NCI panel, 48 h
[1] = test system: 786-0 renal
[2] = test system: A498 renal
[3] = test system: A549 NSCLC
[4] = test system: ACHN renal
[5] = test system: CAKI-1 renal
[6] = test system: COLO 205 colon
[7] = test system: DLD-1 colon
[8] = test system: DMS 114 small cell lung
[9] = test system: DMS 273 small cell lung
[10] = test system: EKVX NSCLC
[11] = test system: HCC-2998 colon
[12] = test system: HCT-116 colon
[13] = test system: HCT-15 colon
[14] = test system: HL-60(TB) leukemia
[15] = test system: HOP-18 NSCLC
[16] = test system: HOP-62 NSCLC
[17] = test system: HOP-92 NSCLC
[18] = test system: HT29 colon
[19] = test system: IGROV1 ovarian
[20] = test system: K-562 leukemia
[21] = test system: KM12 colon
[22] = test system: KM20L2 colon
[23] = test system: LOX IMVI melanoma
[24] = test system: LXFL 529 NSCLC
[25] = test system: M14 melanoma
[26] = test system: M19-MEL melanoma
[27] = test system: MALME-3M melanoma
[28] = test system: MOLT-4 leukemia
[29] = test system: NCI-H226 lung
[30] = test system: NCI-H23 lung
[31] = test system: NCI-H460 lung
[32] = test system: NCI-H522 lung
[33] = test system: OVCAR-3 ovarian
[34] = test system: OVCAR-4 ovarian
[35] = test system: OVCAR-5 ovarian
[36] = test system: OVCAR-8 ovarian
[37] = test system: RPMI-8226 leukemia
[38] = test system: RXF 393 renal
[39] = test system: RXF-631 renal
[40] = test system: SF-268 CNS
[41] = test system: SF-295 CNS
[42] = test system: SF-539 CNS
[43] = test system: SK-MEL-2 melanoma
[44] = test system: SK-MEL-28 melanoma
[45] = test system: SK-MEL-5 melanoma
[46] = test system: SK-OV-3 ovarian
[47] = test system: SN12C renal
[48] = test system: SNB-19 CNS
[49] = test system: SNB-75 CNS
[50] = test system: SNB-78 CNS
[51] = test system: SR leukemia
[52] = test system: SW-620 colon
[53] = test system: TK-10 renal
[54] = test system: U251 CNS
[55] = test system: UACC-257 melanoma
[56] = test system: UACC-62 melanoma
[57] = test system: UO-31 renal
[58] = test system: XF 498 CNS
[59] = test system: CCRF-CEM leukemia

With `CCCCCCCCCCSS(=O)(=O)c1ccc(C)cc1` the TGI [1] was 17.8 µM, the TGI [2] was 35 µM and the TGI [3] was 29.8 µM. For the same molecule, the TGI [4] was 31 µM, the TGI [5] was 31.2 µM and the TGI [6] was 33.6 µM. It also gave a TGI [7] of 29.8 µM, a TGI [8] of 30.4 µM and a TGI [9] of 23 µM. For the same molecule, the TGI [10] was 27 µM, the TGI [11] was 39.3 µM and the TGI [12] was 26.8 µM. It also gave a TGI [13] of 28.2 µM, a TGI [14] of 11.6 µM and a TGI [15] of 43.1 µM. The TGI [16] was 40.1 µM, the TGI [17] was 27.2 µM and the TGI [18] was 23.9 µM. The TGI [19] was 33.7 µM, the TGI [20] was 46.8 µM and the TGI [21] was 30.4 µM. For the same molecule, the TGI [22] was 33.3 µM, the TGI [23] was 15.7 µM and the TGI [24] was 27.6 µM. The TGI [25] was 25 µM, the TGI [26] was 26.6 µM and the TGI [27] was 31.3 µM. For the same molecule, the TGI [28] was 6.73 µM, the TGI [29] was 37.3 µM and the TGI [30] was 35.4 µM. The TGI [31] was 23.9 µM, the TGI [32] was 17.2 µM and the TGI [33] was 33.1 µM. It also gave a TGI [34] of 32 µM, a TGI [35] of 30.6 µM and a TGI [36] of 32.2 µM. It also gave a TGI [37] of 29.6 µM, a TGI [38] of 32.4 µM and a TGI [39] of 17.2 µM. The TGI [40] was 19 µM, the TGI [41] was 18.1 µM and the TGI [42] was 3.67 µM. It also gave a TGI [43] of 12.4 µM, a TGI [44] of 10.2 µM and a TGI [45] of 17.2 µM. For the same molecule, the TGI [46] was 42.9 µM, the TGI [47] was 25.1 µM and the TGI [48] was 27.6 µM. It also gave a TGI [49] of 5.22 µM, a TGI [50] of 29.5 µM and a TGI [51] of 27.8 µM. The TGI [52] was 33.4 µM, the TGI [53] was 37.9 µM and the TGI [54] was 14.3 µM. For the same molecule, the TGI [55] was 19.8 µM, the TGI [56] was 16.1 µM and the TGI [57] was 29 µM. It also gave a TGI [58] of 26 µM.
`COc1cc([C@@H]2c3cc4c(cc3[C@@H](NC(=O)c3ccc(C(C)=O)cc3)C3COC(=O)[C@@H]32)OCO4)cc(OC)c1O` (stereo partly specified) showed a TGI [1] of 1.81 µM, a TGI [2] of 5.87 µM and a TGI [3] of 2.41 µM. For the same molecule, the TGI [4] was 1.75 µM, the TGI [5] was 20.3 µM and the TGI [59] was > 100 µM. For the same molecule, the TGI [6] was 19.5 µM, the TGI [7] was 17.7 µM and the TGI [8] was 4.74 µM. For the same molecule, the TGI [9] was 7.62 µM, the TGI [10] was 17.6 µM and the TGI [11] was 7.91 µM. It also gave a TGI [12] of 5.03 µM, a TGI [13] of 17.3 µM and a TGI [14] of 0.912 µM. For the same molecule, the TGI [15] was > 100 µM, the TGI [16] was 1.35 µM and the TGI [17] was 27 µM. For the same molecule, the TGI [18] was 6.34 µM, the TGI [19] was 5.71 µM and the TGI [20] was > 100 µM. For the same molecule, the TGI [21] was 5.68 µM, the TGI [22] was 8.05 µM and the TGI [23] was 4.68 µM. For the same molecule, the TGI [24] was > 100 µM, the TGI [25] was 31.1 µM and the TGI [26] was 25.5 µM. The TGI [27] was 3.33 µM, the TGI [28] was 29.9 µM and the TGI [29] was 1.93 µM. It also gave a TGI [30] of 1.41 µM, a TGI [31] of 1.53 µM and a TGI [32] of 3.89 µM. For the same molecule, the TGI [33] was 7.61 µM, the TGI [34] was > 100 µM and the TGI [35] was 7.69 µM. The TGI [36] was 13.7 µM, the TGI [37] was 14.5 µM and the TGI [38] was 72.1 µM. The TGI [39] was 10.6 µM, the TGI [40] was > 100 µM and the TGI [41] was > 100 µM. For the same molecule, the TGI [42] was 1.89 µM, the TGI [43] was 8.03 µM and the TGI [44] was 33.6 µM. It also gave a TGI [45] of 10.3 µM, a TGI [46] of 9.46 µM and a TGI [47] of 2.03 µM. The TGI [48] was > 100 µM, the TGI [49] was 4.99 µM and the TGI [50] was 85 µM. It also gave a TGI [52] of 12.3 µM, a TGI [53] of 21.8 µM and a TGI [54] of 1.65 µM. The TGI [55] was 32.2 µM, the TGI [56] was 2.1 µM and the TGI [57] was 17.6 µM. It also gave a TGI [58] of 5.7 µM.
`O=c1c2cc(-c3ccccc3)sc2nc2sc(-c3ccccc3)nn12` was tested, and the TGI [1] was > 100 µM, the TGI [2] was > 100 µM and the TGI [3] was > 100 µM. The TGI [5] was > 100 µM, the TGI [59] was > 100 µM and the TGI [6] was > 100 µM. For the same molecule, the TGI [7] was > 100 µM, the TGI [8] was > 100 µM and the TGI [9] was > 100 µM. The TGI [10] was > 100 µM, the TGI [12] was > 100 µM and the TGI [13] was > 100 µM. The TGI [14] was > 100 µM, the TGI [15] was > 100 µM and the TGI [16] was > 100 µM. The TGI [17] was > 100 µM, the TGI [18] was > 100 µM and the TGI [19] was > 100 µM. For the same molecule, the TGI [20] was > 100 µM, the TGI [21] was > 100 µM and the TGI [22] was > 100 µM. The TGI [23] was > 100 µM, the TGI [24] was > 100 µM and the TGI [25] was > 100 µM. For the same molecule, the TGI [26] was > 100 µM, the TGI [27] was > 100 µM and the TGI [28] was > 100 µM. The TGI [29] was > 100 µM, the TGI [30] was > 100 µM and the TGI [31] was > 100 µM. The TGI [32] was > 100 µM, the TGI [33] was > 100 µM and the TGI [34] was > 100 µM. For the same molecule, the TGI [35] was > 100 µM, the TGI [36] was > 100 µM and the TGI [37] was > 100 µM. For the same molecule, the TGI [38] was > 100 µM, the TGI [39] was > 100 µM and the TGI [40] was > 100 µM. The TGI [41] was > 100 µM, the TGI [42] was > 100 µM and the TGI [43] was > 100 µM. The TGI [45] was > 100 µM, the TGI [46] was > 100 µM and the TGI [47] was > 100 µM. For the same molecule, the TGI [48] was > 100 µM, the TGI [49] was > 100 µM and the TGI [50] was > 100 µM. For the same molecule, the TGI [51] was > 100 µM, the TGI [52] was > 100 µM and the TGI [53] was > 100 µM. For the same molecule, the TGI [54] was > 100 µM, the TGI [55] was > 100 µM and the TGI [56] was > 100 µM. For the same molecule, the TGI [57] was > 100 µM and the TGI [58] was > 100 µM.
With `O=S(O)CCCCSSCCCCS(=O)(O)=S` the TGI [1] was > 100 µM, the TGI [2] was > 100 µM and the TGI [3] was > 100 µM. For the same molecule, the TGI [4] was > 100 µM, the TGI [5] was > 100 µM and the TGI [59] was > 100 µM. The TGI [6] was > 100 µM, the TGI [7] was > 100 µM and the TGI [8] was > 100 µM. For the same molecule, the TGI [9] was > 100 µM, the TGI [10] was 88.6 µM and the TGI [11] was > 100 µM. For the same molecule, the TGI [12] was > 100 µM, the TGI [13] was > 100 µM and the TGI [15] was > 100 µM. For the same molecule, the TGI [16] was > 100 µM, the TGI [18] was > 100 µM and the TGI [19] was > 100 µM. The TGI [20] was > 100 µM, the TGI [21] was > 100 µM and the TGI [22] was > 100 µM. The TGI [23] was > 100 µM, the TGI [24] was 61.2 µM and the TGI [25] was 32.1 µM. For the same molecule, the TGI [26] was > 100 µM, the TGI [27] was > 100 µM and the TGI [28] was > 100 µM. For the same molecule, the TGI [30] was > 100 µM, the TGI [31] was > 100 µM and the TGI [32] was 65.6 µM. The TGI [33] was > 100 µM, the TGI [34] was 79 µM and the TGI [35] was > 100 µM. The TGI [36] was > 100 µM, the TGI [38] was > 100 µM and the TGI [39] was > 100 µM. For the same molecule, the TGI [40] was > 100 µM, the TGI [41] was > 100 µM and the TGI [42] was > 100 µM. For the same molecule, the TGI [43] was > 100 µM, the TGI [44] was > 100 µM and the TGI [45] was 30.8 µM. For the same molecule, the TGI [46] was > 100 µM, the TGI [47] was > 100 µM and the TGI [48] was > 100 µM. The TGI [49] was 92.1 µM, the TGI [50] was > 100 µM and the TGI [52] was > 100 µM. The TGI [53] was > 100 µM, the TGI [54] was > 100 µM and the TGI [55] was > 100 µM. For the same molecule, the TGI [56] was 70.1 µM, the TGI [57] was > 100 µM and the TGI [58] was 33.2 µM.
